Assay results taken from ChEMBL document CHEMBL5390254, “Discovery and Optimization of Novel hDHODH Inhibitors for the Treatment of Inflammatory Bowel Disease” (J Med Chem, 2023).
Each block holds one compound with its values, some of them ahead of it. Activity calls are given as the source filed them. No cut-off for these calls is given here.

Experiments:
Mus musculus [1] = assay: Anti-inflammatory activity against DSS-induced acute ulcerative colitis in C57BL/6 mouse model assessed as decrease in body weight loss at 80 mg/kg, po QD for 6 days (Rvb= -13.4%); type: functional; design: scale not given: the % may be the effect or the level left; conditions: time 6 day
Mus musculus [2] = assay: Anti-inflammatory activity against DSS-induced acute ulcerative colitis in C57BL/6 mouse model assessed as increase in colon length at 80 mg/kg, po QD for 6 days (Rvb= 5.3cm); type: functional; conditions: time 6 day
Mus musculus [3] = assay: Anti-inflammatory activity against DSS-induced acute ulcerative colitis in C57BL/6 mouse model assessed as decrease in IL-1beta production in colon at 40 mg/kg, po QD for 6 days by ELISA; type: functional; conditions: time 6.0 day
Mus musculus [4] = assay: Anti-inflammatory activity against DSS-induced acute ulcerative colitis in C57BL/6 mouse model assessed as decrease in colon tissue damage score at 40 mg/kg, po QD for 6 days relative to DSS group; type: functional; design: scale not given: the % may be the effect or the level left; conditions: time 6 day
Mus musculus [5] = assay: Anti-inflammatory activity against DSS-induced acute ulcerative colitis in C57BL/6 mouse model assessed as decrease in colon length shortening at 40 mg/kg, po QD for 6 days (Rvb= 5.5cm); type: functional; conditions: time 6 day
Mus musculus [6] = assay: Anti-inflammatory activity against DSS-induced acute ulcerative colitis in C57BL/6 mouse model assessed as decrease in IL-17 production in colon at 40 mg/kg, po QD for 6 days by ELISA; type: functional; conditions: time 6.0 day
Mus musculus [7] = assay: Anti-inflammatory activity against DSS-induced acute ulcerative colitis in C57BL/6 mouse model assessed as decrease in IL-17 mRNA expression level in colon at 40 mg/kg, po QD for 6 days by RT-PCR analysis; type: functional, organism-based; conditions: time 6.0 day
Mus musculus [8] = assay: Anti-inflammatory activity against DSS-induced acute ulcerative colitis in C57BL/6 mouse model assessed as decrease in IL-6 mRNA expression level in colon at 40 mg/kg, po QD for 6 days by RT-PCR analysis; type: functional, organism-based; conditions: time 6.0 day
Mus musculus [9] = assay: Anti-inflammatory activity against DSS-induced acute ulcerative colitis in C57BL/6 mouse model assessed as decrease in IL-1beta mRNA expression level in colon at 40 mg/kg, po QD for 6 days by RT-PCR analysis; type: functional, organism-based; conditions: time 6.0 day
Mus musculus [10] = assay: Anti-inflammatory activity against DSS-induced acute ulcerative colitis in C57BL/6 mouse model assessed as decrease in IL-6 production in colon at 40 mg/kg, po QD for 6 days by ELISA; type: functional; conditions: time 6.0 day
[11] = 1-octanol/water partition coefficient, logP of the compound at 2 mg by UPLC analysis; type: physicochemical
[12] = Metabolic stability in human liver microsomes assessed as intrinsic clearance at 3 uM incubated upto 90 mins in presence of NADPH by LC-MS/MS analysis; type: ADME, Microsome; conditions: read-out: CLH
[13] = Metabolic stability in rat liver microsomes assessed as intrinsic clearance at 3 uM incubated upto 90 mins in presence of NADPH by LC-MS/MS analysis; type: ADME, Microsome; conditions: read-out: CLH
[14] = Metabolic stability in rat liver microsomes assessed as half life at 3 uM incubated upto 90 mins in presence of NADPH by LC-MS/MS analysis; type: ADME, Microsome
[15] = Metabolic stability in human liver microsomes assessed as half life at 3 uM incubated upto 90 mins in presence of NADPH by LC-MS/MS analysis; type: ADME, Microsome
[16] = Metabolic stability in mouse liver microsomes assessed as intrinsic clearance at 3 uM incubated upto 90 mins in presence of NADPH by LC-MS/MS analysis; type: ADME, Microsome; conditions: read-out: CLH
[17] = Metabolic stability in mouse liver microsomes assessed as half life at 3 uM incubated upto 90 mins in presence of NADPH by LC-MS/MS analysis; type: ADME, Microsome

Compound: C[C@@H]1CCN(C(=O)CC#N)C[C@@H]1N(C)c1ncnc2[nH]ccc12 [TOFACITINIB]
- Activity (Mus musculus [1]): -3.9%
- Activity (Mus musculus [2]): 6.7 cm
- Activity (Mus musculus [3]): Active
- Activity (Mus musculus [4]): 45.45%
- Activity (Mus musculus [5]): 6.3 cm
- Activity (Mus musculus [6]): Active
- Activity (Mus musculus [7]): Active
- Activity (Mus musculus [8]): Active
- Activity (Mus musculus [9]): Active
- Activity (Mus musculus [10]): Active

- logP [11]: 5.1
Compound: Nc1nc(-c2cn(Cc3c(F)cccc3F)c3ncccc23)ncc1C1CC1

- CLint scaled at 3 µM [12]: 45.7 mL/min/kg
- CLint scaled at 3 µM [13]: 101 mL/min/kg
- half-life at 3 µM [14]: 24.5 min
- half-life at 3 µM [15]: 38.1 min
- CLint scaled at 3 µM [16]: 177 mL/min/kg
- half-life at 3 µM [17]: 30.8 min
Compound: Nc1nc(-c2nn(Cc3ccccc3F)c3ncccc23)ncc1C1CC1
